The results in this text go back to US20260345591A1, “COMBINATIONS OF ESTROGEN RECEPTOR DEGRADERS AND CDK4 INHIBITORS” (PFIZER INC., priority 2023, published 2026).

Structures are written as SMILES. “Also recorded” adds a separate entry of the source.

A short description of data set [1]: Biopharmaceutics Classification System (solubility/permeability). It counts as physicochemical.
Data set [2] concerns HR+HER2− BC Xenograft Model MCF7. Description: Tumor regrowth after end of treatment in MCF7 xenograft model. The class given is in vivo, Mus musculus (NSG mice). Conditions: fulvestrant 10 mg/kg alone; Compound A 30 mg/kg QD alone; palbociclib 10 mg/kg BID + Compound A 30 mg/kg QD. The procedure: (§1) To establish the MCF7 P1, when tumor volume of MCF7 PO donor mice reached a range of 700 to 800 mm3, tumors were collected and cut into fragments. The fragments were subsequently transplanted into secondary recipient mice for TGI study expansion. Secondary recipient mice were than randomly assigned to groups (n=10) when tumor volumes reached a range between 143 mm3 and 209 mm3 and subsequently treated with: 1) vehicle (0.5% methylcellulose A4M/water), PO; 2) fulvestrant at 10 mg/kg twice in the first week, then weekly afterwards, SC; 3) Compound A at 30 mg/kg QD, PO; 4) Compound B at 30 mg/kg BID, PO; 5) Compound B at 60 mg/kg BID, PO; 6) Compound B at 30 mg/kg plus fulvestrant; 7) Compound B at 60 mg/kg plus fulvestrant; 8) Compound B at 30 mg/kg plus Compound A; 9) Compound B at 60 mg/kg plus […]; 10) palbociclib at 10 mg/kg BID, PO plus Compound A. All mice received treatment continuously until Day 42. TGI was assessed on Day 41 post first dose.
For the efficacy measurements, tumor volume and body weights were collected twice a week. Tumor volume was calculated using the [(Length×Width×Width)/2)] formula. TGI was calculated as 100*(1−ΔT/ΔC). […]
Tumor growth delay was monitored after treatment was discontinued on Day 43 and statistical analysis was performed on Day 26 post last dose (Day 69 post study start).

A further data set has as its system MCF7 xenograft model. Description: Tumor growth inhibition (anti-tumor efficacy) in MCF7 xenograft model, HR+/HER2- breast cancer. The class given is in vivo, Mus musculus (NSG mice). The settings on record: for TGI / TGI, statistical significance (ANCOVA): Day 41. The procedure: To generate MCF7 PO donors, cells were obtained from ATCC and cultured in RPM11640 supplemented with 10% FBS. All cells were maintained in a humidified incubator at 37 °C with 5% CO2.
To establish the MCF7 PO donor mice, cells (5×10^6/mouse with 50% Cultrex® Basement Membrane Matrix) were subcutaneously (in 0.2 mL total volume) implanted in female NSG mice supplemented with 17β-ESTRADIOL water ad libidum (8.5 μg/mL concentration). The 17β-ESTRADIOL water supplement was administered about 7 days before the implant and all throughout the duration of the study.
as §1
For the efficacy measurements, tumor volume and body weights were collected twice a week. Tumor volume was calculated using the [(Length×Width×Width)/2)] formula. TGI was calculated as 100*(1−ΔT/ΔC). The ΔC (ΔT) was obtained by subtracting the mean tumor burden in the vehicle (treated) group on the first day of treatment (Day 0) from the mean tumor burden in vehicle (treated) group on the assessment day. Statistical analysis was performed using TGI Analyzer ANCOVA. BLISS statistical analysis (statistical modeling of single drug response from drug combination data) was used to measure synergy effect, a combination is synergistic if the tumor volume is less than the BLISS with pvalue of <0.05.
Compound B was tested at two CRD dose levels (30 mg/kg, BID and 60 mg/kg, BID) as a single agent or in combination with Compound A at 30 mg/kg QD or fulvestrant at CRD (10 mg/kg). Palbociclib at CRD (10 mg/kg, BID) in combination with Compound A served as a positive comparator.

A short description of data set [3]: Interconversion to epimer. The class given is physicochemical.
A short description of data set [4]: Preclinical exposure of epimer Compound C compared to Compound A. The settings on record: preclinical data. It counts as in vivo.
A further data set deals with T1, estrogen receptor (Homo sapiens, UniProt P03372).
T1 construct: cereblon-recruiting PROTAC degradation
T1 sequence (P03372 1-595): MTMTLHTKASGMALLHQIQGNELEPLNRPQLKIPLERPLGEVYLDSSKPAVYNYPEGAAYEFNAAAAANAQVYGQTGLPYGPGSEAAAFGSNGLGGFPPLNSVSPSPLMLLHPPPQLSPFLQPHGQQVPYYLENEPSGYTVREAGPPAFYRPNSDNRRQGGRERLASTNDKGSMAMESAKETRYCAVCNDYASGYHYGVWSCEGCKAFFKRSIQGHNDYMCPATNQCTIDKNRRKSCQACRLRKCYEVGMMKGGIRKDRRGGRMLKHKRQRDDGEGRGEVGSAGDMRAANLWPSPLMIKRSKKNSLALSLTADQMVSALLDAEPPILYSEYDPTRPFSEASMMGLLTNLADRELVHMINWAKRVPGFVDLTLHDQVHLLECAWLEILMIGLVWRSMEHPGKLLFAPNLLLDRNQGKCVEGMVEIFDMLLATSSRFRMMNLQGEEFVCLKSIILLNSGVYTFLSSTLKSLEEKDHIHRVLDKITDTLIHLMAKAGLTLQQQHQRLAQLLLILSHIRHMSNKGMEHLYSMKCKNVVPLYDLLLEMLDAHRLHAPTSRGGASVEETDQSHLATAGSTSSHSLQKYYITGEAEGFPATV
Description: Degradation of the estrogen receptor. The settings on record: preclinical data. It counts as cell-based.

Where [5] appears, read: fulvestrant 10 mg/kg alone, Compound A 30 mg/kg QD alone, palbociclib 10 mg/kg BID + Compound A 30 mg/kg QD.

Turning to `O=C1CC[C@H](N2Cc3cc(N4CCN(CC5CCN(c6ccc([C@@H]7c8ccc(O)cc8CC[C@@H]7c7ccccc7)cc6)CC5)CC4)ccc3C2=O)C(=O)N1` [Compound A, (S)-3-(5-(4-((1-(4-((1R,2S)-6-hydroxy-2-phenyl-1,2,3,4-tetrahydronaphthalen-1-yl)phenyl)piperidin-4-yl)methyl)piperazin-1-yl)-1-oxoisoindolin-2-yl)piperidine-2,6-dione], the “Biopharmaceutics Classification System class” value in data set [1] is given as “Class IV compound (low solubility/low permeability)”. In data set [2], the “Tumor regrowth, ANCOVA Analysis (Day 26 post end of treatment)” value is “β (indicates p < 0.05 versus Compound B single agent)”. In addition, the TGI with MCF7 xenograft model (Compound A 30 mg/kg PO QD × 42 D) turned out to be 119%. The “TGI, statistical significance (ANCOVA)” value with MCF7 xenograft model (Compound A 30 mg/kg QD, alone or with palbociclib 10 mg/kg BID) is reported as “*α+βγ”. The “antitumor efficacy” value in the data set with MCF7 xenograft model (setting [5]) is reported as “significant tumor regression; also recorded: no significant differences in the TGI”. In addition, the “interconversion to epimer Compound C” value in data set [3] is reported as “can interconvert to its epimer”.
As for `CC(C)n1c(C(C)(C)O)nc2c(F)cc(-c3nc(N[C@@H]4CCOC[C@H]4O)ncc3Cl)cc21` [Compound B, 1,5-anhydro-3-({5-chloro-4-[4-fluoro-2-(2-hydroxypropan-2-yl)-1-(propan-2-yl)-1H-benzimidazol-6-yl]pyrimidin-2-yl}amino)-2,3-dideoxy-D-threo-pentitol], the TGI with MCF7 xenograft model (Compound B 30 mg/kg PO BID × 42 D) was 62%; with MCF7 xenograft model (Compound B 60 mg/kg PO BID × 42 D) it was 81%. Further, the “TGI, statistical significance (ANCOVA)” value in the data set on MCF7 xenograft model (Compound B at 30 mg/kg BID, alone or + fulvestrant 10 mg/kg) is listed as “*α ^”; in the data set with MCF7 xenograft model (Compound B at 60 mg/kg BID, alone, + fulvestrant 10 mg/kg or + Compound A 30 mg/kg QD), “*+α”. Moreover, the “antitumor efficacy” value with MCF7 xenograft model (Compound B at 30 and 60 mg/kg BID, alone or + Compound A 30 mg/kg QD) is “significant tumor growth inhibition; also recorded: significant efficacy”.
Take `O=C1CC[C@@H](N2Cc3cc(N4CCN(CC5CCN(c6ccc([C@@H]7c8ccc(O)cc8CC[C@@H]7c7ccccc7)cc6)CC5)CC4)ccc3C2=O)C(=O)N1` [Compound C]: in data set [4], the “exposure of Compound C compared to Compound A” value is < 26%. For the same compound, the “degradation of the estrogen receptor” value at estrogen receptor was “does not degrade the estrogen receptor”.
For `C[C@]12CC[C@@H]3c4ccc(O)cc4C[C@@H](CCCCCCCCC[S+]([O-])CCCC(F)(F)C(F)(F)F)[C@H]3[C@@H]1CC[C@@H]2O` (stereo partly drawn) [Fulvestrant, fulvestrant, reference compound], in the data set on MCF7 xenograft model (fulvestrant 10 mg/kg SC, D 1, D 3, then 1x/week × 5 W), the TGI was −7%. In the data set with MCF7 xenograft model (setting [5]), the “antitumor efficacy” value is “no tumor growth inhibition”.
